How the values were obtained:
[1] = test system: A549 cells
[2] = test system: influenza virus; conditions: in vivo; cited from earlier work
[3] = test system: A/Anhui/01/2013 (H7N9); format: cell-based, influenza; conditions: A549 cells, 10 μM for 1 hour before infection, 1 MOI H7N9, 24 hours post infection, titrated on MDCK cells
[4] = test system: influenza virus; conditions: in vitro; cited from earlier work
[5] = test system: A/Brisbane/10/2007 (H3N2); format: cell-based, influenza
[6] = test system: A/California/04/2009 (H1N1); format: cell-based, influenza

For `O=C(NCCN1CCC2(CC1)C(=O)NCN2c1cccc(F)c1)c1ccc2ccccc2c1` [compound 3], the “cellular toxicity in microscopic image” value [1] is listed as “significant cellular toxicity”, the survival [2] is listed as “increased survival” and the viral titer [2] is listed as “reduced viral titer”. The “viral reproduction (TCID50)” value [3] was “significantly lowered viral reproduction”, the viral entry [4] was “delayed viral entry” and the viral titers [4] was “reduced viral titers”. For the same compound, the “viral reproduction (TCID50)” value [5] was “significantly lowered viral reproduction” and the “viral reproduction (TCID50)” value [6] was “significantly lowered viral reproduction”.
